Laboratory results reported in patent US5041579A, “Platinum complexes and uses therewith” (Ajinomoto Co., Inc., priority 1987, dated 1991).

Columns and labels:
[1] = test system: Sarcoma-180 cells; test: Anti-tumor activity testing 1: life-prolonging rate in mice transplanted intraperitoneally with Sarcoma-180 cells; format: in vivo, Female ICR/CRJ mice; details: day after transplantation
Experimental: Female ICR/CRJ mice of 5-week age were used as test animals (five head for each group).
(§1) Sarcoma-180 cells (1×10^6) were intraperitoneally transplanted to each of the test animals, each of the Pt(II) complexes listed in Table 1 was then injected intraperitoneally on the next day, and the life-prolonging rate was measured for each test group. Physiologically saline was used as the solvent of injections.

[2] = test system: L1210 cells; test: Anti-tumor activity testing 2: life-prolonging rate in mice transplanted intraperitoneally with L1210 cells; format: in vivo, Female BDF1 mice; details: days 1, 5 and 9
Experimental: Female BDF1 mice of 5-week age were used as test animals (five head for each group).
as §1, with “L1210” for “Sarcoma-180”, “(1×10^5)” for “(1×10^6)”, “2” for “1”, “one” for “on the next”, “day, five days and nine days after transplantation (a total of three times),” for “day,”

[3] = test system: Colon 38 cells; test: Anti-tumor activity testing 3: tumor-growth inhibition of subcutaneous Colon 38, intraperitoneal injection; format: in vivo, female BDF mice; details: days 1, 8 and 15, 21 days after transplantation
Experimental: female BDF mice of 5-week age were used as test animals (five head for each group).
Colon 38 cells (40 mg) were subcutaneously transplanted to each of the test animals at the haunch, each of the Pt(II) complexes listed in Table 3 was then injected intraperitoneally 1 day, 8 days and 15 days after transplantation (a total of three times), and the tumor-growth inhibition rate was measured for each test group 21 days after transplantation.

[4] = test system: L1210 cells; test: Growth inhibition of L1210 cells ([3H]-thymidine uptake); format: cell-based, mouse; details: 46 h incubation plus 2 h with [3H]-thymidine, 37° C.
Experimental: (§2) L1210 cells and cisplatin-resistant L1210 cells under subcultivation were incubated in RPMI1640 medium containing 10% fetal bovine serum at 37° C. for 46 hours in an atmosphere containing 5% carbon dioxide. [^3 H]-thymidine was added to the grown cells, and incubation was continued for an additional two hours. The growth inhibition rate of a drug was calculated from the amounts of [^3 H]-thymidine taken into the cells in the presence and absence of that drug, and the 50% growth inhibition concentration (IC50) was determined from the graph of inhibition rate plotted against drug concentration. The degree of drug resistance was calculated from the ratio of IC50 for cisplatin-resistant L1210 cells to that for L1210 cells.

[5] = test system: cisplatin-resistant L1210 cells; test: Growth inhibition of cisplatin-resistant L1210 cells ([3H]-thymidine uptake); format: cell-based, mouse; details: for IC50: 46 h incubation plus 2 h with [3H]-thymidine, 37° C.; for Degree of Resistance: ratio of IC50 for cisplatin-resistant L1210 cells to that for L1210 cells, 2880 min
Experimental: as §2

[6] = test system: Colon 38 cells; test: Anti-tumor activity testing 4: tumor-growth inhibition of subcutaneous Colon 38, intravenous injection; format: in vivo, Female BDF mice; details: 21 days after transplantation
From the text: Female BDF mice of 5-week age were used as test animals (eight head for each group).

[7] = cited from earlier work
[8] = Solubility in physiological saline; format: physicochemical

Row | SMILES | Life-prolonging Rate ([1]; 16.0 mg/Kg × 1, i.p.) | Life-prolonging Rate ([2]; 30.0 μmol/Kg × 3, i.p.) | Life-prolonging Rate ([1]; 4.0 mg/Kg × 1, i.p.) | Life-prolonging Rate ([1]; 8.0 mg/Kg × 1, i.p.) | Life-prolonging Rate ([2]; 7.5 μmol/Kg × 3, i.p.) | Life-prolonging Rate ([2]; 15.0 μmol/Kg × 3, i.p.) | Tumor-growth Inhibition Rate ([3]; 20.0 μmol/Kg × 3, i.p.) | Tumor-growth Inhibition Rate ([3]; 30.0 μmol/Kg × 3, i.p.) | Tumor-growth Inhibition Rate ([3]; 45.0 μmol/Kg × 3, i.p.) | IC50 [4] | IC50 [5] | Degree of Resistance [5] | Tumor-growth Inhibition Rate ([6]; 2 mg/kg × 6, i.v.) | Tumor-growth Inhibition Rate ([6]; 4 mg/kg × 6, i.v.) | Tumor-growth Inhibition Rate ([6]; 8 mg/kg × 6, i.v.) | Tumor-growth Inhibition Rate ([6]; 16 mg/kg × 6, i.v.) | further results
1 | NC1CCCC(N)C1.O=C1[O][Pt][O]C(=O)C12CCC2 [Compound No. 6, Cis-cyclobutane-1,1-dicarboxylato-1,3-diaminocyclohexaneplatinum(II)] | 126% | 98% |  |  |  |  |  |  |  |  |  |  |  |  |  |  | Life-prolonging Rate ([1]; 32.0 mg/Kg × 1, i.p.): 106%; Life-prolonging Rate ([2]; 60.0 μmol/Kg × 3, i.p.): 104%
2 | O=S1(=O)[O][Pt]2([NH]C3CCCC(C3)[NH]2)[O]1 [Compound No. 5, Cis-sulfato-1,3-diaminocyclohexaneplatinum(II)] | 236% | 155% | 202% | 187% | 121% | 189% | 36% | 56% | 56% | 3.1 µM | 7.9 µM | 2.5 |  |  |  |  | 
3 | O=C1C[O][Pt]2([NH]C3CCCC(O)C3[NH]2)[O]1 (stereo not drawn) [Compound No. 3, Cis-glycolato-(1/2,3)-2,3-diamino-1-cyclohexanolplatinum(II)] | 252% | 147% | 212% | 182% | 116% | 122% | 70% | 72% | 96% | 1.3 µM | 2.5 µM | 1.9 |  |  |  |  | 
4 | O=S1(=O)[O][Pt]2([NH]C3CC([NH]2)C(O)C(O)C3O)[O]1 (stereo not drawn) [Compound No. 7, Cis-sulfato-2-deoxystreptamineplatinum(II)] | 120% | 109% |  | 126% |  | 102% |  |  |  |  |  |  |  |  |  |  | Life-prolonging Rate ([1]; 32.0 mg/Kg × 1, i.p.): 241%; Life-prolonging Rate ([2]; 60.0 μmol/Kg × 3, i.p.): 119%
5 | NC1CCCC(O)C1N.O=S1(=O)[O][Pt][O]1 (single isomer, unassigned; (-)) [Compound No. 9] |  |  |  |  |  |  |  |  |  |  |  |  | 40% | 88% | 88% | toxic | 
6 | NC1CCCC(N)C1.O=C1[O][Pt][O]C1=O (stereo not drawn) [Compound No. 4, Cis-oxalato-1,3-diaminocyclohexaneplatinum(II)] | 364% | 245% | 248% | 258% | 127% | 222% | 54% | 77% | 88% | 2.4 µM | 5 µM | 2.1 |  |  |  |  | 
7 | N.N.[Cl][Pt][Cl] [Cisplatin, cis-dichlorodiamineplatinum(II), reference compound] |  |  |  |  |  |  |  |  |  | 1 µM | 10.5 µM | 10.5 | 58% | 84% | toxic |  | Tumor-growth Inhibition Rate ([6]; 1 mg/kg × 6, i.v.): 19%; anti-tumor activity (in words) ([7]; Nature, 222, 385 (1969)): high anti-tumor activity; side effects (in words) ([7]; clinical use): severe side effects, such as toxicity to the kidney, nausea, emesis and bradyacusia
8 | NC1CCCC(O)C1N.O=S(=O)([O-])[O-].[Pt+2] (stereo not drawn) [Compound No. 2, Cis-sulfato-(1/2,3)-2,3-diamino-1-cyclohexanolplatinum(II)] | 534% | 151% | 295% | 532% | 136% | 134% | 47% | 78% | 97% | 1.7 µM | 3.2 µM | 1.9 | 22% | 41% | 90% | toxic | Solubility [8]: > 20.0 mg/mL
9 | NC1CCCC(O)C1N.O=S1(=O)[O][Pt][O]1 (single isomer, unassigned; (+)) [Compound No. 8, (+)-Cis-sulfato-(1/2,3)-2,3-diaminocyclohexanol-platinum(II)] |  |  |  |  |  |  |  |  |  |  |  |  | 34% | 35% | 61% | 91% | 
10 | O=C1[O][Pt]2([NH]C3CCCC(O)C3[NH]2)[O]C1=O (stereo not drawn) [Compound No. 1, Cis-oxalato-(1/2,3)-2,3-diamino-1-cyclohexanolplatinum(II)] | 266% | 132% | 189% | 218% | 115% | 115% | 24% | 16% | 45% | 3.5 µM | 6.6 µM | 1.9 |  |  |  |  | 
